Experimental findings from ChEMBL document CHEMBL1201862, “PubChem BioAssay data set” (2004) are described below.

Molecules are shown by their SMILES.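 Growth conditions: 96-well plates. Treatment: test compound, 48 hours, 5 concentrations. Analysis: linear interpolation between bracketing concentrations; unreached endpoints set to highest concentration. The concentration for 50% growth inhibition is given as GI50.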 Calls of active or inactive are those of the source. No stated cut-off is given here; in the data, active = GI50 up to about 1.1 µM and inactive = higher.

Test systems include CCRF-CEM; RPMI-8226; HCC 2998; SN12C; TK-10; MOLT-4; MDA-MB-435; SK-OV-3; MCF7; A549; COLO 205; NCI-H226; HOP-92; UACC-62; 786-0; OVCAR-3; HOP-62; UO-31; SF-539; SNB-78.
Common to all, as to assay: NCI anticancer screen, dose series, 48 h

As to `O=C1C(Cl)=C(N2CCN(c3ncccn3)CC2)C(=O)c2c(O)ccc(O)c21`, the GI50 is 0.211 µM (active) with CCRF-CEM; 2.49 µM (inactive) in the test on RPMI-8226; 10.8 µM (inactive) with HCC 2998; 1.85 µM (inactive) with SN12C; 1.89 µM (inactive) in the test on TK-10; 0.697 µM (active) with MOLT-4. The GI50 in the test with MDA-MB-435 was 1.67 µM (inactive); in the test with SK-OV-3, 24 µM (inactive); with MCF7, 1.51 µM (inactive); with A549, 7.16 µM (inactive); in the test with COLO 205, 1.75 µM (inactive); in the test on NCI-H226 it was 21.8 µM (inactive). For the same compound, the GI50 in the test on HOP-92 was 2.37 µM (inactive); in the test with UACC-62, 2.59 µM (inactive); in the test with 786-0, 1.6 µM (inactive); in the test with OVCAR-3 it was 1.72 µM (inactive); with HOP-62, 2.55 µM (inactive); in the test with UO-31, 2.07 µM (inactive). The GI50 in the test with SF-539 is 1.97 µM (inactive).
Consider `O=c1oc2ccccc2cc1-c1nc2ccc([N+](=O)[O-])cc2o1`, for which the GI50 in the test on CCRF-CEM, in the test with RPMI-8226, in the test with HCC 2998, in the test with SN12C, with TK-10 and in the test with MOLT-4 was > 100 µM (inactive) in each case. The GI50 in the test on MDA-MB-435 was > 100 µM (inactive); with SK-OV-3, > 100 µM (inactive); in the test with MCF7, 83.8 µM (inactive); in the test on A549, > 100 µM (inactive); in the test with COLO 205, > 100 µM (inactive); with NCI-H226, > 100 µM (inactive). Also, the GI50 in the test on HOP-92 was > 100 µM (inactive); in the test on UACC-62 it was > 100 µM (inactive); in the test on 786-0 it was > 100 µM (inactive); in the test with OVCAR-3, > 100 µM (inactive); in the test with HOP-62 it was 28.1 µM (inactive); in the test with UO-31, > 100 µM (inactive). Further, the GI50 with SF-539 was 65.2 µM (inactive).
For the compound `O=CCCCC(Sc1ccccc1)Sc1ccccc1`, the GI50 with CCRF-CEM is 12 µM (inactive); in the test with RPMI-8226, 16 µM (inactive); with HCC 2998, 31 µM (inactive); in the test on SN12C, 22 µM (inactive); in the test with TK-10, 32.4 µM (inactive); with MOLT-4, 12.5 µM (inactive). For the same compound, the GI50 in the test on SK-OV-3 is 18.7 µM (inactive); in the test with A549, 29.6 µM (inactive); with COLO 205 it was 23.5 µM (inactive); in the test with UACC-62 it was 7.67 µM (inactive); in the test on 786-0, 19.1 µM (inactive); in the test on OVCAR-3, 26.2 µM (inactive). In addition, the figures for the GI50 in the test on HOP-62, with SNB-78 and in the test with UO-31 were > 100 µM (inactive), 15.3 µM (inactive) and 14.7 µM (inactive), respectively.
As for `N=C(N)N/N=C/c1c(Cl)nc2n1CCS2`, the GI50 in the test on CCRF-CEM is 71.9 µM (inactive); with RPMI-8226, > 100 µM (inactive); in the test on HCC 2998 it was 45.3 µM (inactive); in the test with SN12C, 62.5 µM (inactive); in the test on TK-10 it was > 100 µM (inactive); in the test on MOLT-4, 46.8 µM (inactive). Besides, the GI50 with MDA-MB-435 is 59.4 µM (inactive); in the test on SK-OV-3, 57.3 µM (inactive); in the test with MCF7, 46.1 µM (inactive); in the test with A549, 62.5 µM (inactive); in the test with COLO 205, 34.7 µM (inactive); in the test on NCI-H226 it was > 100 µM (inactive). Moreover, the GI50 in the test on HOP-92 is 70.3 µM (inactive); with UACC-62, > 100 µM (inactive); in the test on 786-0 it was 49.4 µM (inactive); in the test on OVCAR-3, 44.4 µM (inactive); with HOP-62, 38.1 µM (inactive); with UO-31, > 100 µM (inactive). In addition, the GI50 in the test with SF-539 is 47.5 µM (inactive).
For the compound `Cn1c2ccccc2c2c(=O)[nH]c(=O)[nH]c21`, the GI50 in the test on CCRF-CEM, in the test with RPMI-8226, in the test with HCC 2998, with SN12C, with TK-10 and with MOLT-4 was > 100 µM (inactive) throughout. The GI50 in the test on MDA-MB-435, in the test with SK-OV-3, in the test with MCF7, with A549, with COLO 205 and in the test on NCI-H226 was > 100 µM (inactive) each time. For the same compound, the GI50 in the test on HOP-92, in the test with UACC-62, with 786-0, with OVCAR-3, in the test with HOP-62 and with UO-31 was > 100 µM (inactive) throughout. Also, the GI50 in the test on SF-539 was > 100 µM (inactive).
Consider `CCN1C(=O)C(=C/C=C/c2ccc(OC)cc2)C(=O)N(CC)C1=S`, for which the GI50 was 20.6 µM (inactive) with CCRF-CEM; 33.6 µM (inactive) in the test with RPMI-8226; 53.2 µM (inactive) in the test on HCC 2998; 18.2 µM (inactive) in the test on SN12C; 17.5 µM (inactive) with TK-10; 25.7 µM (inactive) in the test on MOLT-4. The GI50 is 21.6 µM (inactive) with MDA-MB-435; 23.1 µM (inactive) with SK-OV-3; 33.8 µM (inactive) with MCF7; > 100 µM (inactive) in the test on A549; 18.5 µM (inactive) with COLO 205; 32.9 µM (inactive) in the test with NCI-H226. Moreover, the GI50 with HOP-92 is 14.2 µM (inactive); in the test with UACC-62 it was 16.7 µM (inactive); in the test on 786-0 it was 17.6 µM (inactive); in the test with OVCAR-3, 16.6 µM (inactive); with HOP-62 it was 18.6 µM (inactive); in the test with UO-31 it was 40.3 µM (inactive). In addition, the GI50 in the test on SF-539 is 19.6 µM (inactive).
With `C[Si](C)(C)C1=C([Si](C)(C)C)C(Cl)(Cl)C1=O`, the GI50 in the test with CCRF-CEM is 0.232 µM (active); with RPMI-8226, 0.8 µM (active); in the test with HCC 2998, 8.36 µM (inactive); in the test on SN12C, 3.31 µM (inactive); in the test with TK-10, 1.68 µM (inactive); in the test on MOLT-4, 0.671 µM (active). Besides, the GI50 in the test on MDA-MB-435 was 2 µM (inactive); with SK-OV-3, 22.6 µM (inactive); in the test on MCF7, 6.15 µM (inactive); with A549 it was 19.8 µM (inactive); in the test on COLO 205, 2.04 µM (inactive); with NCI-H226 it was 3.13 µM (inactive). The GI50 in the test with HOP-92 is 2.04 µM (inactive); in the test with UACC-62, 2.38 µM (inactive); with 786-0 it was 2.58 µM (inactive); in the test with OVCAR-3, 2.18 µM (inactive); with HOP-62, 18.7 µM (inactive); in the test with UO-31 it was 2.34 µM (inactive). Further, in the test with SF-539, the GI50 was 5.22 µM (inactive).
As for `COC(=O)C(=O)C(C#N)c1ccc(CC#N)cc1` (centres undefined), the GI50 in the test with CCRF-CEM, in the test on RPMI-8226, in the test with SN12C, with TK-10, in the test with MOLT-4 and in the test on SK-OV-3 was > 100 µM (inactive) in each case. For the same compound, the GI50 with A549, in the test on NCI-H226, in the test on HOP-92, in the test on UACC-62, in the test on 786-0 and with OVCAR-3 was > 100 µM (inactive) in each case. Moreover, the GI50 in the test with SNB-78, in the test on UO-31 and with SF-539 was > 100 µM (inactive) each time.
